Measured values reported in US11446282B2, “Methods of treating mixed dyslipidemia and hypertriglycertdemia” (Kowa Company, Ltd., priority 2017, dated 2022).

System: dyslipidemic patients with renal impairment
Assay: Example 3 phase III 52-week trial: cholesterol in lipoprotein subclasses by HPLC
Assay type: in vivo, human
Conditions: 0.2 (0.4) mg/day
Description: This was a multicenter, single-arm, open-label, phase III trial. The inclusion criteria were as follows: (1) patients with dyslipidemia aged >20 years at the time of informed consent; (2) men and postmenopausal women; (3) fasting serum TG≥1.70 mmol/L (150 mg/dL) at two consecutive measurements during screening; and (4) patients who followed dietary and physical exercise guidance for >12 weeks before enrollment.
The major exclusion criteria were as follows: (1) patients with fasting serum TG≥5.65 mmol/L (500 mg/dL) during screening; (2) patients with poorly controlled diabetes mellitus (hemoglobin A1c [HbA1c]≥10.5%); (3) patients with concurrent poorly controlled thyroid disease; (4) men with serum creatinine ≥2.5 mg/dL and women with serum creatinine ≥2.0 mg/dL during screening who were already on statin therapy; (5) patients with eGFR<45 mL/min/1.73 m^2 during screening who were already on statin therapy; (6) patients with CK>5ULN (270 IU/L for men, 150 IU/L for women) during screening who were already on statin therapy; (7) patients with serious liver disease (cirrhosis Child-Pugh Class B or higher); (8) patients with gallstones or serious biliary tract disease; (9) patients who had suffered an acute myocardial infarction or stroke within three months before informed consent; and (10) patients with New York Heart Association class III or IV heart failure.
During the screening period (8 weeks prior to treatment initiation), tests were performed twice to determine patient eligibility. Thereafter, eligible patients orally received pemafibrate 0.2 mg/day (twice daily) for 52 weeks. From week 12 of the treatment period onwards, the investigators were instructed that the dose could be increased from 0.2 mg/day to 0.4 mg/day (twice daily) if there was an inadequate response to the initial dose based on fasting serum TG levels ≥1.70 mmol/L (150 mg/dL). Fasting blood and urine samples were collected at each visit. Blood and urine sample in patients with hemodialysis were collected just before dialysis. LDL-C levels were measured using the direct method. […]
The primary efficacy endpoint was the percent change in fasting serum TG from baseline to the last evaluation point. The primary safety endpoints were the incidence of an AE or ADR occurring after drug administration during the study. Secondary efficacy endpoints included percent changes in lipid variables and changes in inflammation variables at week 52 [using the last-observation-carried-forward (LOCF)]. Secondary safety endpoints included changes in the levels of aspartate aminotransferase (AST), ALT, -GT, ALP, serum creatinine, eGFR, and CK at week 52. Each baseline value was defined as (1) the mean of the corresponding values in the first and second tests at the screening examination and at week 0 of the treatment period for fasting serum TG, HDL-C, total cholesterol (TC), LDL-C, and non-HDL-C; and (2) the value at week 0 of the treatment period for the other secondary variables.
The numbers of patients with AEs and ADRs and the incidences of AEs and ADRs were calculated in the analysis of primary safety endpoints. For the secondary efficacy endpoints, one-sample t-tests or Wilcoxon signed-rank tests [for high-sensitivity C-reactive protein (hsCRP) and IL-1] were performed. The secondary safety endpoints were analyzed with Wilcoxon signed-rank tests. A two-sided significance level of 0.05 was used. SAS v. 9.3 (SAS Institute Inc., Cary, N.C., USA) was used for these analyses. Where indicated, the data are expressed as means±standard deviation (SD).

SMILES: CC[C@@H](Oc1cccc(CN(CCCOc2ccc(OC)cc2)c2nc3ccccc3o2)c1)C(=O)O [Pemafibrate, (2R)-2-[3-({1,3-benzoxazol-2-yl[3-(4-methoxyphenoxy)propyl]amino}methyl)phenoxy]butanoic acid]
- CM-C % Change from baseline at Week 52 (LOCF) (All Participants): −64.3%
- CM-C Week 52 (LOCF) (All Participants): 0.039 mmol/L
- Large HDL-C % Change from baseline at Week 52 (LOCF) (All Participants): −9.2%
- Large HDL-C Week 52 (LOCF) (All Participants): 0.115 mmol/L
- Large LDL-C % Change from baseline at Week 52 (LOCF) (All Participants): 63.1%
- Large LDL-C Week 52 (LOCF) (All Participants): 0.748 mmol/L
- Medium HDL-C % Change from baseline at Week 52 (LOCF) (All Participants): 19.3%
- Medium HDL-C Week 52 (LOCF) (All Participants): 0.443 mmol/L
- Medium LDL-C % Change from baseline at Week 52 (LOCF) (All Participants): 17.3%
- Medium LDL-C Week 52 (LOCF) (All Participants): 1.194 mmol/L
- Small HDL-C % Change from baseline at Week 52 (LOCF) (All Participants): 24.2%
- Small HDL-C Week 52 (LOCF) (All Participants): 0.473 mmol/L
- Small LDL-C % Change from baseline at Week 52 (LOCF) (All Participants): −20.6%
- Small LDL-C Week 52 (LOCF) (All Participants): 0.517 mmol/L
- VLDL-C % Change from baseline at Week 52 (LOCF) (All Participants): −24.9%
- VLDL-C Week 52 (LOCF) (All Participants): 0.866 mmol/L
- Very large HDL-C % Change from baseline at Week 52 (LOCF) (All Participants): 4.4%
- Very large HDL-C Week 52 (LOCF) (All Participants): 0.048 mmol/L
- Very small HDL-C % Change from baseline at Week 52 (LOCF) (All Participants): 27.9%
- Very small HDL-C Week 52 (LOCF) (All Participants): 0.181 mmol/L
- Very small LDL-C % Change from baseline at Week 52 (LOCF) (All Participants): −11.6%
- Very small LDL-C Week 52 (LOCF) (All Participants): 0.210 mmol/L
- CM-C % Change from baseline at Week 52 (LOCF) (eGFR G1 (≥90)): −54.1%
- CM-C Week 52 (LOCF) (eGFR G1 (≥90)): 0.064 mmol/L
- Large HDL-C % Change from baseline at Week 52 (LOCF) (eGFR G1 (≥90)): −14.1%
- Large HDL-C Week 52 (LOCF) (eGFR G1 (≥90)): 0.107 mmol/L
- Large LDL-C % Change from baseline at Week 52 (LOCF) (eGFR G1 (≥90)): 54.5%
- Large LDL-C Week 52 (LOCF) (eGFR G1 (≥90)): 0.724 mmol/L
- Medium HDL-C % Change from baseline at Week 52 (LOCF) (eGFR G1 (≥90)): 11.4%
- Medium HDL-C Week 52 (LOCF) (eGFR G1 (≥90)): 0.441 mmol/L
- Medium LDL-C % Change from baseline at Week 52 (LOCF) (eGFR G1 (≥90)): 15.5%
- Medium LDL-C Week 52 (LOCF) (eGFR G1 (≥90)): 1.244 mmol/L
- Small HDL-C % Change from baseline at Week 52 (LOCF) (eGFR G1 (≥90)): 18.1%
- Small HDL-C Week 52 (LOCF) (eGFR G1 (≥90)): 0.482 mmol/L
- Small LDL-C % Change from baseline at Week 52 (LOCF) (eGFR G1 (≥90)): −18.0%
- Small LDL-C Week 52 (LOCF) (eGFR G1 (≥90)): 0.576 mmol/L
- VLDL-C % Change from baseline at Week 52 (LOCF) (eGFR G1 (≥90)): −24.6%
- VLDL-C Week 52 (LOCF) (eGFR G1 (≥90)): 0.932 mmol/L
- Very large HDL-C % Change from baseline at Week 52 (LOCF) (eGFR G1 (≥90)): 0.8%
- Very large HDL-C Week 52 (LOCF) (eGFR G1 (≥90)): 0.047 mmol/L
- Very small HDL-C % Change from baseline at Week 52 (LOCF) (eGFR G1 (≥90)): 20.6%
- Very small HDL-C Week 52 (LOCF) (eGFR G1 (≥90)): 0.186 mmol/L
- Very small LDL-C % Change from baseline at Week 52 (LOCF) (eGFR G1 (≥90)): −10.3%
- Very small LDL-C Week 52 (LOCF) (eGFR G1 (≥90)): 0.233 mmol/L
- CM-C % Change from baseline at Week 52 (LOCF) (eGFR G2 (≥60 and <90)): −63.9%
- CM-C Week 52 (LOCF) (eGFR G2 (≥60 and <90)): 0.038 mmol/L
- Large HDL-C % Change from baseline at Week 52 (LOCF) (eGFR G2 (≥60 and <90)): −10.9%
- Large HDL-C Week 52 (LOCF) (eGFR G2 (≥60 and <90)): 0.115 mmol/L
- Large LDL-C % Change from baseline at Week 52 (LOCF) (eGFR G2 (≥60 and <90)): 67.7%
- Large LDL-C Week 52 (LOCF) (eGFR G2 (≥60 and <90)): 0.765 mmol/L
- Medium HDL-C % Change from baseline at Week 52 (LOCF) (eGFR G2 (≥60 and <90)): 17.7%
- Medium HDL-C Week 52 (LOCF) (eGFR G2 (≥60 and <90)): 0.448 mmol/L
- Medium LDL-C % Change from baseline at Week 52 (LOCF) (eGFR G2 (≥60 and <90)): 18.7%
- Medium LDL-C Week 52 (LOCF) (eGFR G2 (≥60 and <90)): 1.226 mmol/L
- Small HDL-C % Change from baseline at Week 52 (LOCF) (eGFR G2 (≥60 and <90)): 23.6%
- Small HDL-C Week 52 (LOCF) (eGFR G2 (≥60 and <90)): 0.477 mmol/L
- Small LDL-C % Change from baseline at Week 52 (LOCF) (eGFR G2 (≥60 and <90)): −20.6%
